# Key:
# MOLM-13 cells [1] = assay: Tumor-bearing mice transplanted with MOLM-13 cells, with venetoclax and azacitidine, T/C (Example 10); type: in vivo; conditions: MOLM-13 tumor-bearing mice, oral, 15 days
# Method: The present compound was weighed and dissolved in 0.5 w/v % Methyl Cellulose 400 solution to give the compound concentrations of 20 mg/mL and 10 mg/mL. Venetoclax was weighed and suspended in a mixed solution of Phosal 50 propylene glycol (60%)/Polyethylene glycol-400 (30%)/Ethanol (10%) to give the compound concentration of 5 mg/mL. Azacitidine was weighed and dissolved in saline to give the compound concentration of 0.3 mg/mL.
# MOLM-13 cells (DSMZ) were intradermally implanted around the ventral region of 5-week old NOD. CB17-PrkdcSCID/J mice (female, The Jackson Laboratory Japan) at 1×10^6 cells/mouse. […] The tumor volume was measured over time from the start of the administration, and the reduction effect of the tumor volume due to the compound-administration was evaluated. The tumor volume was calculated by the following formula using short axis and long axis of the tumor measured with an electronic caliper (Mitutoyo).
# (§1) The control administration group in which only the solvent was administered and the test substance administration group were compared, and T/C was calculated using the following formula to evaluate the antitumor effect.
# [2] = test system: acute leukemia with MLLr or NPM1m; assay: Phase 1/2 clinical study, clinical activity (responses by ELN 2017); type: in vivo, human
# MOLM-13 cells [3] = assay: Tumor-bearing mice transplanted with MOLM-13 cells, with cytarabine and daunorubicin, T/C (Example 11); type: in vivo; conditions: MOLM-13 tumor-bearing mice, oral, 17 days
# Method: Cytarabine (Cylocide Injection 200 mg/10 mL, Nippon Shinyaku Co., Ltd.) was diluted with saline (Otsuka Saline Injection, Otsuka Pharmaceutical Factory Co., Ltd.) to 8 mg/mL. Daunorubicin (Daunomycin for injection 20 mg, Meiji, Seika Pharma Co., Ltd.) was dissolved in saline (Otsuka Saline Injection, Otsuka Pharmaceutical Factory Co., Ltd.) to 0.2 mg/mL.
# MOLM-13 cells (DSMZ) were intradermally implanted around the ventral region of 8-week old NOD. CB17-PrkdcSCID/J mice (female, The Jackson Laboratory Japan) at 1×10^6 cells/mouse. […] Cytarabine was intraperitoneally administered to the mice at a dose of 80 mg/kg once a day for 5 days. Daunorubicin was intravenously administered to the mice at a dose of 1 mg/kg once a day for 3 days. The tumor volume was measured over time from the start of the administration, and the reduction effect of the tumor volume due to the compound-administration was evaluated. The tumor volume was calculated by the following formula using short axis and long axis of the tumor measured with an electronic caliper (Mitutoyo).
# as §1
# [4] = MLLr + NPM1m, ≥140 mg BID, n=21
compound,measurement,setting,value
"C=C1C[C@@H]2CC[C@H]1[C@@H](C(=O)N1CCC3(CC1)CN(c1ncncc1Oc1ccc(F)cc1C(=O)N(C(C)C)C(C)C)C3)N2 [the present compound, 5-fluoro-2-[(4-{7-[(1S,3S,4R)-5-methylidene-2-azabicyclo[2.2.2]octane-3-carbonyl]-2,7-diazaspiro[3.5]nonan-2-yl}pyrimidin-5-yl)oxy]-N,N-di(propan-2-yl)benzamide]",T/C,MOLM-13 cells [1]; 100 mg/kg,22.6%
same,T/C,MOLM-13 cells [1]; 200 mg/kg,8.4%
same,responders per ELN 2017,"[2]; 43 enrolled, MLLr or NPM1m, 19 evaluable",5 responders
same,objective response rate (ORR) by ELN 2017 (CR+CRi+MLFS),"[2]; MLLr (20 AML, 2 ALL), ≥140 mg BID, no prior menin inhibitor (13/22)",59.1%
same,CR + CRh (ELN 2017),[2]; [4],5 (24%) n (%)
same,Composite CR (ELN 2017),[2]; [4],7 (33%) n (%)
same,Objective Response Rate (ELN 2017),[2]; [4],12 (57%) n (%)
same,CR+CRh,"[2]; MLLr or NPM1m, all dose levels 40-300 mg BID, prior menin inhibitor naïve, finished 1 cycle (6/38)",16%
same,ORR,"[2]; MLLr or NPM1m, all dose levels 40-300 mg BID, prior menin inhibitor naïve, finished 1 cycle (12/38)",32%
same,CR+CRh rate,"[2]; MLLr or NPM1m, ≥140 mg BID, prior menin inhibitor naïve, finished 1 cycle (5/22)",23%
same,ORR (CR+CRi+MLFS),"[2]; MLLr or NPM1m, ≥140 mg BID, prior menin inhibitor naïve, finished 1 cycle (10/22)",45%
same,CR+CRh,"[2]; MLLr, ≥140 mg BID (2/12 patients)",17%
same,Objective Response Rate (ORR; CR+CRh+CRi+MLFS),"[2]; MLLr, ≥140 mg BID (8/12 patients)",67%
same,CR + CRh (ELN 2017),"[2]; MLLr, ≥140 mg BID, n=12",2 (17%) n (%)
same,Composite CR (ELN 2017),"[2]; MLLr, ≥140 mg BID, n=12",5 (42%) n (%)
same,Objective Response Rate (ELN 2017),"[2]; MLLr, ≥140 mg BID, n=12",8 (67%) n (%)
same,CR+CRh,"[2]; MLLr, ≥140 mg BID, no prior menin inhibitor (5/22)",22.7%
same,CR+CRh,"[2]; NPM1m AML, ≥140 mg BID, no prior menin inhibitor (3/13)",23.1%
same,ORR,"[2]; NPM1m AML, ≥140 mg BID, no prior menin inhibitor (7/13)",53.8%
same,CR+CRh,"[2]; NPM1m, ≥140 mg BID (3/9 patients)",33%
same,ORR,"[2]; NPM1m, ≥140 mg BID (4/9 patients)",44%
same,CR + CRh (ELN 2017),"[2]; NPM1m, ≥140 mg BID, n=9",3 (33%) n (%)
same,Composite CR (ELN 2017),"[2]; NPM1m, ≥140 mg BID, n=9",3 (33%) n (%)
same,Objective Response Rate (ELN 2017),"[2]; NPM1m, ≥140 mg BID, n=9",4 (44%) n (%)
same,response achieved (ELN 2017),"[2]; a patient with MLLr, 120 mg BID Arm A",MLFS
same,additional patients with MLLr with response per ELN2017 (CRh/CRi and MLFS),[2]; lower dose levels,Two
same,median time to CR+CRh,"[2]; overall, ≥140 mg BID",1.0 months
same,median time to objective response,"[2]; overall, ≥140 mg BID",1.0 months
same,Bone marrow blast reduction,[2]; patients with MLLr or NPM1m (FIG. 8),observed
same,T/C,MOLM-13 cells [3]; 100 mg/kg,29.8%
same,T/C,MOLM-13 cells [3]; 200 mg/kg,0.3%
